From patent publication US20230097253A1, “NOVEL QUINAZOLINE COMPOUND AS THERAPEUTIC AGENT FOR METABOLIC DISORDERS” (BIOWAY., INC, priority 2020, published 2023) come the findings set out here.

Assay [1] relates to steatosis-induced Huh7 cells. Nature of the assay: Fat globule reducing effect in steatosis-induced hepatocytes by Oil-Red-O staining. The assay is classed as cell-based. The settings on record: 250 μM PA, 0.5, 2.5 and 10 μM, concentration dependent, FIG. 7. As to the method: According to an embodiment of the present invention, in order to confirm the effect of inhibiting the accumulation of triglycerides in steatosis-induced liver cells, the Huh7 cells were cultured in an incubator set at 37° C. with 95% humidity and 5% CO2.
Additionally, Huh7 cells were proliferated to a confluency of 80-90% on a plate using a growth medium (Dulbecco's modified Eagle's medium (DMEM) supplemented with 10% fetal bovine serum (FBS), 100 U/ml of penicillin, and 100 μg/ml of streptomycin), and then used for the experiment.
According to an embodiment of the present invention, in order to confirm the ability of BW-3290 to inhibit fat globule accumulation in steatosis-induced liver cells, the liver cells were treated with palmitic acid (PA) bound to 2% BSA at a concentration of 250 μM except for the control group to induce steatosis, and then fat globules were stained through Oil-Red-O staining.
First, liver cells were cultured to grow 80-90% confluency in a 12 well plate, and the test material were diluted in the culture medium that induced steatosis and the liver cells, except for the control group, were treated with 0.5 μM, 2.5 μM, and 10 μM of the test material.
Additionally, after removing the cell supernatant from the wells for Oil-Red-O staining, the washing process was performed twice with PBS. […]

Assay [2] has as its system Huh7 cells induced with inflammatory response. The experiment in a line: Protein expression levels in liver cells induced with inflammatory response (western blot). In kind it is cell-based. Conditions: Huh7 cells pretreated with 10 ng/ml IL-1β; 0.5, 2.5, 10 μM, 24 hours; FIG. 11. The protocol: To induce steatosis in Huh-7 cells in each well except for control cells, the Huh-7 cells were pretreated with 10 ng/ml IL-1p for 2 hr except for the control.
The cells in each well were treated with the compound of the present invention, BW-3290, 0.5 μM, 2.5 μM, and 10 μM and then cultured for 24 hours. All media were aspirated and the cells were gently washed 3 times with cold PBS.
A cold lysis buffer containing 150 mM sodium chloride (NaCl), 5 mM ethylenediaminetetraacetic acid (EDTA), pH 8.0, […] 4-(2-hydroxyethyl)-1-piperazineethanesulfonic acid (HEPES), 1% nonylphenoxypolyethoxylethanol (NP-40), 2 μg/mL aprotinin, 1 μM pepstatin A, 10 μM leupeptin, 1 mM sodium fluoride (NaF), 0.2 mM sodium orthovanadate ([…]), and 1 μM phenylmethylsulfonyl fluoride (PMSF) was added thereto.
A whole cell lysate was collected and gently pipetted at least 10 times to ensure complete lysis. The sample was incubated on ice for 20 minutes and centrifuged 4° C. at 13,000 rpm, for 20 minutes. The supernatant was collected, 5× sodium dodecyl sulfate (SDS) sample buffer containing 50 mM Tris-CI (pH 6.8), 2% SDS, 0.1% bromopheol blue, and 10% glycerol was added to the sample, and boiled at 95° C. for 5 minutes. […]
Images were acquired using an ImageQuant LAS 3000 (Fujifilm, Tokyo, Japan). Data were analyzed.

The structures appear in SMILES notation.

Turning to `CC(C)C(Nc1ncnc2nc[nH]c12)c1nc2cccc(Cl)c2c(=O)n1-c1ccccc1` (stereo not drawn) [BW-3290, 2-(1-((7H-purin-6-yl)amino)-2-methylpropyl)-5-chloro-3-phenylquinazolin-4(3H)-one], in assay [1], the “fat globule staining (Oil-Red-O) compared to PA” value was “lower level of fat globule staining compared to PA”. For the same molecule, in assay [2], the “protein expression level of p-IKKα” value was “decreased in a concentration-dependent manner” and the “protein expression level of p-NFκ” value is “decreased in a concentration-dependent manner”.
